Patent publication US6518243B1, “Desleucyl glycopeptide antibiotics and methods of making same” (Trustees of Princeton University, priority 1999, dated 2003)

Legend:
Assay in all cases: Zone of inhibition screen, 96 well agar array format
Type in all cases: cell-based
Design in all cases: scale not given here
[1] = test system: S. epidermidis (ATCC 12228)
Outline: (§1)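 Compounds are screened one by one for antibacterial effect in an agar array of 96 wells, using the same set of strains throughout.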

E. faecalis (CL 4877) = test system: E. faecalis (CL 4877)
Outline: as §1

S. aureus (ATCC 29213) = test system: S. aureus (ATCC 29213)
Outline: as §1

[2] = zone of inhibition relative to 1 mg/ml p-chlorobiphenylvancomycin
[3] = zone of inhibition relative to 1 mg/ml stock solution of p-chlorobiphenylvancomycin

C[C@H]1O[C@H](O[C@H]2[C@H](Oc3c4cc5cc3Oc3ccc(cc3Cl)[C@@H](O)[C@@H](NC(=O)c3ccoc3)C(=O)N[C@@H](CC(N)=O)C(=O)N[C@H]5C(=O)N[C@H]3C(=O)N[C@H](C(=O)N[C@@H](C(=O)O)c5cc(O)cc(O)c5-c5cc3ccc5O)[C@H](O)c3ccc(c(Cl)c3)O4)O[C@H](CO)[C@@H](O)[C@@H]2O)C[C@@](C)(NCc2ccc(-c3ccc(Cl)cc3)cc2)[C@H]1O [Compound 260]
zone score, S. epidermidis ATCC 12228 [1, 2]: 2

CC(=O)CCC(=O)NC1C(=O)NC(CC(N)=O)C(=O)NC2C(=O)NC3C(=O)NC(C(=O)NC(C(=O)O)c4cc(O)cc(O)c4-c4cc3ccc4O)C(O)c3ccc(c(Cl)c3)Oc3cc2cc(c3OC2OC(CO)C(O)C(O)C2OC2CC(C)(NCc3ccc(-c4ccc(Cl)cc4)cc3)C(O)C(C)O2)Oc2ccc(cc2Cl)C1O (stereo not drawn) [Compound 295]
zone score, S. epidermidis ATCC 12228 [1, 2]: 2
zone score, E. faecalis CL 4877 (E. faecalis (CL 4877); [2]): 2

CC1OC(OC2C(Oc3c4cc5cc3Oc3ccc(cc3Cl)[C@@H](O)[C@@H](NC(=O)/C=C\C(N)=O)C(=O)N[C@@H](CC(N)=O)C(=O)N[C@H]5C(=O)NC3C(=O)N[C@H](C(=O)N[C@@H](C(=O)O)c5cc(O)cc(O)c5-c5cc3ccc5O)[C@H](O)c3ccc(c(Cl)c3)O4)OC(CO)C(O)C2O)CC(C)(NCc2ccc(-c3ccc(Cl)cc3)cc2)C1O (stereo partly drawn) [Compound 170]
zone score, S. epidermidis ATCC 12228 [1, 3]: 2
zone score, E. faecalis CL 4877 (E. faecalis (CL 4877); [3]): 2

CC(=O)Oc1cc(C(=O)NC2C(=O)NC(CC(N)=O)C(=O)NC3C(=O)NC4C(=O)NC(C(=O)NC(C(=O)O)c5cc(O)cc(O)c5-c5cc4ccc5O)C(O)c4ccc(c(Cl)c4)Oc4cc3cc(c4OC3OC(CO)C(O)C(O)C3OC3CC(C)(NCc4ccc(-c5ccc(Cl)cc5)cc4)C(O)C(C)O3)Oc3ccc(cc3Cl)C2O)cc(OC(C)=O)c1OC(C)=O (stereo not drawn) [Compound 250]
zone score, S. epidermidis ATCC 12228 [1, 2]: 2

CC1OC(OC2C(Oc3c4cc5cc3Oc3ccc(cc3Cl)C(O)C3NC(=O)C(NC(=O)C5NC(=O)C(CC(N)=O)NC(=O)C(NC(=O)Cc5cccs5)C(O)c5ccc(c(Cl)c5)O4)c4ccc(O)c(c4)-c4c(O)cc(O)cc4C(C(=O)O)NC3=O)OC(CO)C(O)C2O)CC(C)(NCc2ccc(-c3ccc(Cl)cc3)cc2)C1O (stereo not drawn) [Compound 318]
zone score, S. epidermidis ATCC 12228 [1, 2]: 2

CC1OC(OC2C(Oc3c4cc5cc3Oc3ccc(cc3Cl)C(O)C3NC(=O)C(NC(=O)C5NC(=O)C(CC(N)=O)NC(=O)C(NC(=O)Cc5ccc(F)c(F)c5)C(O)c5ccc(c(Cl)c5)O4)c4ccc(O)c(c4)-c4c(O)cc(O)cc4C(C(=O)O)NC3=O)OC(CO)C(O)C2O)CC(C)(NCc2ccc(-c3ccc(Cl)cc3)cc2)C1O (stereo not drawn) [Compound 252]
zone score, S. epidermidis ATCC 12228 [1, 2]: 2

Cc1cn(CC(=O)NC2C(=O)NC(CC(N)=O)C(=O)NC3C(=O)NC4C(=O)NC(C(=O)NC(C(=O)O)c5cc(O)cc(O)c5-c5cc4ccc5O)C(O)c4ccc(c(Cl)c4)Oc4cc3cc(c4OC3OC(CO)C(O)C(O)C3OC3CC(C)(NCc4ccc(-c5ccc(Cl)cc5)cc4)C(O)C(C)O3)Oc3ccc(cc3Cl)C2O)c(=O)[nH]c1=O (stereo not drawn) [Compound 207]
zone score, S. epidermidis ATCC 12228 [1, 2]: 2

CC1OC(OC2C(Oc3c4cc5cc3Oc3ccc(cc3Cl)C(O)C3NC(=O)C(NC(=O)C5NC(=O)C(CC(N)=O)NC(=O)C(NC(=O)c5cccc(F)c5)C(O)c5ccc(c(Cl)c5)O4)c4ccc(O)c(c4)-c4c(O)cc(O)cc4C(C(=O)O)NC3=O)OC(CO)C(O)C2O)CC(C)(NCc2ccc(-c3ccc(Cl)cc3)cc2)C1O (stereo not drawn) [Compound 259]
zone score, S. epidermidis ATCC 12228 [1, 2]: 2

CC1OC(OC2C(Oc3c4cc5cc3Oc3ccc(cc3Cl)C(O)C3NC(=O)C(NC(=O)C5NC(=O)C(CC(N)=O)NC(=O)C(NC(=O)C(N)=O)C(O)c5ccc(c(Cl)c5)O4)c4ccc(O)c(c4)-c4c(O)cc(O)cc4C(C(=O)O)NC3=O)OC(CO)C(O)C2O)CC(C)(NCc2ccc(-c3ccc(Cl)cc3)cc2)C1O (stereo not drawn) [Compound 327]
zone score, S. epidermidis ATCC 12228 [1, 2]: 2

COC(=O)CCCC(=O)NC1C(=O)NC(CC(N)=O)C(=O)NC2C(=O)NC3C(=O)NC(C(=O)NC(C(=O)O)c4cc(O)cc(O)c4-c4cc3ccc4O)C(O)c3ccc(c(Cl)c3)Oc3cc2cc(c3OC2OC(CO)C(O)C(O)C2OC2CC(C)(NCc3ccc(-c4ccc(Cl)cc4)cc3)C(O)C(C)O2)Oc2ccc(cc2Cl)C1O (stereo not drawn) [Compound 304]
zone score, S. epidermidis ATCC 12228 [1, 2]: 2

CC1OC(OC2C(Oc3c4cc5cc3Oc3ccc(cc3Cl)C(O)C3NC(=O)C(NC(=O)C5NC(=O)C(CC(N)=O)NC(=O)C(NC(=O)c5ccc(O)nc5)C(O)c5ccc(c(Cl)c5)O4)c4ccc(O)c(c4)-c4c(O)cc(O)cc4C(C(=O)O)NC3=O)OC(CO)C(O)C2O)CC(C)(NCc2ccc(-c3ccc(Cl)cc3)cc2)C1O (stereo not drawn) [Compound 276]
zone score, S. epidermidis ATCC 12228 [1, 2]: 2

COc1ccc(C=CC(=O)NC2C(=O)NC(CC(N)=O)C(=O)NC3C(=O)NC4C(=O)NC(C(=O)NC(C(=O)O)c5cc(O)cc(O)c5-c5cc4ccc5O)C(O)c4ccc(c(Cl)c4)Oc4cc3cc(c4OC3OC(CO)C(O)C(O)C3OC3CC(C)(NCc4ccc(-c5ccc(Cl)cc5)cc4)C(O)C(C)O3)Oc3ccc(cc3Cl)C2O)cc1 (stereo not drawn) [Compound 273]
zone score, S. epidermidis ATCC 12228 [1, 2]: 2

CC(=O)N1CCC(C(=O)NC2C(=O)NC(CC(N)=O)C(=O)NC3C(=O)NC4C(=O)NC(C(=O)NC(C(=O)O)c5cc(O)cc(O)c5-c5cc4ccc5O)C(O)c4ccc(c(Cl)c4)Oc4cc3cc(c4OC3OC(CO)C(O)C(O)C3OC3CC(C)(NCc4ccc(-c5ccc(Cl)cc5)cc4)C(O)C(C)O3)Oc3ccc(cc3Cl)C2O)CC1 (stereo not drawn) [Compound 99]
zone score, S. epidermidis ATCC 12228 [1, 3]: 2

COC(=O)CCC(=O)NC1C(=O)NC(CC(N)=O)C(=O)NC2C(=O)NC3C(=O)NC(C(=O)NC(C(=O)O)c4cc(O)cc(O)c4-c4cc3ccc4O)C(O)c3ccc(c(Cl)c3)Oc3cc2cc(c3OC2OC(CO)C(O)C(O)C2OC2CC(C)(NCc3ccc(-c4ccc(Cl)cc4)cc3)C(O)C(C)O2)Oc2ccc(cc2Cl)C1O (stereo not drawn) [Compound 305]
zone score, S. epidermidis ATCC 12228 [1, 2]: 2

CC(=O)NCCCC(=O)NC1C(=O)NC(CC(N)=O)C(=O)NC2C(=O)NC3C(=O)NC(C(=O)NC(C(=O)O)c4cc(O)cc(O)c4-c4cc3ccc4O)C(O)c3ccc(c(Cl)c3)Oc3cc2cc(c3OC2OC(CO)C(O)C(O)C2OC2CC(C)(NCc3ccc(-c4ccc(Cl)cc4)cc3)C(O)C(C)O2)Oc2ccc(cc2Cl)C1O (stereo not drawn) [Compound 107]
zone score, S. aureus ATCC 29213 (S. aureus (ATCC 29213); [3]): 2
zone score, E. faecalis CL 4877 (E. faecalis (CL 4877); [3]): 2

CC1OC(OC2C(Oc3c4cc5cc3Oc3ccc(cc3Cl)C(O)C3NC(=O)C(NC(=O)C5NC(=O)C(CC(N)=O)NC(=O)C(NC(=O)c5ccc(=O)[nH]n5)C(O)c5ccc(c(Cl)c5)O4)c4ccc(O)c(c4)-c4c(O)cc(O)cc4C(C(=O)O)NC3=O)OC(CO)C(O)C2O)CC(C)(NCc2ccc(-c3ccc(Cl)cc3)cc2)C1O (stereo not drawn) [Compound 298]
zone score, S. aureus ATCC 29213 (S. aureus (ATCC 29213); [2]): 2
zone score, E. faecalis CL 4877 (E. faecalis (CL 4877); [2]): 2

C=C(C(=O)NC1C(=O)NC(CC(N)=O)C(=O)NC2C(=O)NC3C(=O)NC(C(=O)NC(C(=O)O)c4cc(O)cc(O)c4-c4cc3ccc4O)C(O)c3ccc(c(Cl)c3)Oc3cc2cc(c3OC2OC(CO)C(O)C(O)C2OC2CC(C)(NCc3ccc(-c4ccc(Cl)cc4)cc3)C(O)C(C)O2)Oc2ccc(cc2Cl)C1O)C(F)(F)F (stereo not drawn) [Compound 231]
zone score, S. aureus ATCC 29213 (S. aureus (ATCC 29213); [2]): 2
zone score, E. faecalis CL 4877 (E. faecalis (CL 4877); [2]): 2

CC1OC(OC2C(Oc3c4cc5cc3Oc3ccc(cc3Cl)C(O)C3NC(=O)C(NC(=O)C5NC(=O)C(CC(N)=O)NC(=O)C(NC(=O)C5=CC(O)C(O)C(O)C5)C(O)c5ccc(c(Cl)c5)O4)c4ccc(O)c(c4)-c4c(O)cc(O)cc4C(C(=O)O)NC3=O)OC(CO)C(O)C2O)CC(C)(NCc2ccc(-c3ccc(Cl)cc3)cc2)C1O (stereo not drawn) [Compound 201]
zone score, S. aureus ATCC 29213 (S. aureus (ATCC 29213); [3]): 2
zone score, E. faecalis CL 4877 (E. faecalis (CL 4877); [3]): 2

Cc1cnc(C(=O)NC2C(=O)NC(CC(N)=O)C(=O)NC3C(=O)NC4C(=O)NC(C(=O)NC(C(=O)O)c5cc(O)cc(O)c5-c5cc4ccc5O)C(O)c4ccc(c(Cl)c4)Oc4cc3cc(c4OC3OC(CO)C(O)C(O)C3OC3CC(C)(NCc4ccc(-c5ccc(Cl)cc5)cc4)C(O)C(C)O3)Oc3ccc(cc3Cl)C2O)cn1 (stereo not drawn) [Compound 243]
zone score, S. aureus ATCC 29213 (S. aureus (ATCC 29213); [2]): 2
zone score, E. faecalis CL 4877 (E. faecalis (CL 4877); [2]): 2

CSCCC(NC(C)=O)C(=O)NC1C(=O)NC(CC(N)=O)C(=O)NC2C(=O)NC3C(=O)NC(C(=O)NC(C(=O)O)c4cc(O)cc(O)c4-c4cc3ccc4O)C(O)c3ccc(c(Cl)c3)Oc3cc2cc(c3OC2OC(CO)C(O)C(O)C2OC2CC(C)(NCc3ccc(-c4ccc(Cl)cc4)cc3)C(O)C(C)O2)Oc2ccc(cc2Cl)C1O (stereo not drawn) [Compound 115]
zone score, S. aureus ATCC 29213 (S. aureus (ATCC 29213); [3]): 2
zone score, E. faecalis CL 4877 (E. faecalis (CL 4877); [3]): 2

COC(=O)C=CC(=O)NC1C(=O)NC(CC(N)=O)C(=O)NC2C(=O)NC3C(=O)NC(C(=O)NC(C(=O)O)c4cc(O)cc(O)c4-c4cc3ccc4O)C(O)c3ccc(c(Cl)c3)Oc3cc2cc(c3OC2OC(CO)C(O)C(O)C2OC2CC(C)(NCc3ccc(-c4ccc(Cl)cc4)cc3)C(O)C(C)O2)Oc2ccc(cc2Cl)C1O (stereo not drawn) [Compound 297]
zone score, S. aureus ATCC 29213 (S. aureus (ATCC 29213); [2]): 2
zone score, E. faecalis CL 4877 (E. faecalis (CL 4877); [2]): 2

CC1OC(OC2C(Oc3c4cc5cc3Oc3ccc(cc3Cl)C(O)C3NC(=O)C(NC(=O)C5NC(=O)C(CC(N)=O)NC(=O)C(NC(=O)C(=O)NNC(=N)N)C(O)c5ccc(c(Cl)c5)O4)c4ccc(O)c(c4)-c4c(O)cc(O)cc4C(C(=O)O)NC3=O)OC(CO)C(O)C2O)CC(C)(NCc2ccc(-c3ccc(Cl)cc3)cc2)C1O (stereo not drawn) [Compound 199]
zone score, S. aureus ATCC 29213 (S. aureus (ATCC 29213); [3]): 2
zone score, E. faecalis CL 4877 (E. faecalis (CL 4877); [3]): 2

CC(=O)Nc1ccc(C(=O)NC2C(=O)NC(CC(N)=O)C(=O)NC3C(=O)NC4C(=O)NC(C(=O)NC(C(=O)O)c5cc(O)cc(O)c5-c5cc4ccc5O)C(O)c4ccc(c(Cl)c4)Oc4cc3cc(c4OC3OC(CO)C(O)C(O)C3OC3CC(C)(NCc4ccc(-c5ccc(Cl)cc5)cc4)C(O)C(C)O3)Oc3ccc(cc3Cl)C2O)cc1 (stereo not drawn) [Compound 265]
zone score, S. aureus ATCC 29213 (S. aureus (ATCC 29213); [2]): 2
zone score, E. faecalis CL 4877 (E. faecalis (CL 4877); [2]): 2

CC1OC(OC2C(Oc3c4cc5cc3Oc3ccc(cc3Cl)C(O)C3NC(=O)C(NC(=O)C5NC(=O)C(CC(N)=O)NC(=O)C(NC(=O)C(CCC(N)=O)NC(=O)OC(C)(C)C)C(O)c5ccc(c(Cl)c5)O4)c4ccc(O)c(c4)-c4c(O)cc(O)cc4C(C(=O)O)NC3=O)OC(CO)C(O)C2O)CC(C)(NCc2ccc(-c3ccc(Cl)cc3)cc2)C1O (stereo not drawn) [Compound 141]
zone score, S. aureus ATCC 29213 (S. aureus (ATCC 29213); [3]): 2
zone score, E. faecalis CL 4877 (E. faecalis (CL 4877); [3]): 2
